# Measured values taken from PubChem BioAssay AID1259340 (Broad Institute, 2017).
# Calls of active or inactive are those of the source.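 Rule for the calls: active = AC50 no more than ten times the top concentration tested; inconclusive = flat fit with inhibition between 30% and 70%, or unusable fit; inactive = AC50 beyond ten times the top concentration.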
# Biological target: Caspase recruitment domain-containing protein 9 (Homo sapiens) + B-cell lymphoma/leukemia 10 (Homo sapiens) (UniProt Q9H257+O95999)
# Assay: disruptors of CARD9-BCL10 binding, dose response, selectivity assay for CARD9-TRIM62 disruptor project, cell lysate, HEK293FT lysates, Luminex bead ELISA (AID 1259340)
# Conditions: at 80 µM (top of the series)
# Chain of Caspase recruitment domain-containing protein 9 (Homo sapiens) + B-cell lymphoma/leukemia 10 (Homo sapiens) (O95999 whole entry, looked up, the tested form may be a part): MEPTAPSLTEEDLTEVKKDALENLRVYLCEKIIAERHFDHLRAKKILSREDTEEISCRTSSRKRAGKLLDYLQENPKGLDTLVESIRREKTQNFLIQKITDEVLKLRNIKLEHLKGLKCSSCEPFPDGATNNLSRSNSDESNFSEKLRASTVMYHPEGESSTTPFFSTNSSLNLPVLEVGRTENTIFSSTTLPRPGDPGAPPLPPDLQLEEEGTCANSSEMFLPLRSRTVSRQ
# Chain of Caspase recruitment domain-containing protein 9 (Homo sapiens) + B-cell lymphoma/leukemia 10 (Homo sapiens) (Q9H257 whole entry, looked up, the tested form may be a part): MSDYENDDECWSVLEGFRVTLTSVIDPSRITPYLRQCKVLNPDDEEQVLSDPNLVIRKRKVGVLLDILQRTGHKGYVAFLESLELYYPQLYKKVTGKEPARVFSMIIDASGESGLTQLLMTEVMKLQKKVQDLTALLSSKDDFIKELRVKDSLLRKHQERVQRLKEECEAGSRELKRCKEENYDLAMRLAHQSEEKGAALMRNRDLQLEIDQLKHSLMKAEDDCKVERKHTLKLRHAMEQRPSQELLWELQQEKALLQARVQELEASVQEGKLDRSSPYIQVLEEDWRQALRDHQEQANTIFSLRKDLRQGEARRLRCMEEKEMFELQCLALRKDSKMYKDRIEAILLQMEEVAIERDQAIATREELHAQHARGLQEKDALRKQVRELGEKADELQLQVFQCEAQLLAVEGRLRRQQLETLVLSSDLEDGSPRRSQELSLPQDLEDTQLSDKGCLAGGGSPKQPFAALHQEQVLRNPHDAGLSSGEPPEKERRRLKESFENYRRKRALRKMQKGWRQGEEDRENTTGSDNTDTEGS
row,"activity change, negative = inhibition",SMILES
1,inactive,O=C(CN1CCOC1=O)N1CCC2(CCC(=O)N(CCCn3ccnc3)C2)CC1
2,inactive,O=S(=O)(c1ccccc1)N1CC2CN(Cc3ccc(O)cc3)C2C1 (centres undefined)
3,inactive,O=C(Nc1nc(-c2nc3ccccc3s2)cs1)c1ccco1
4,inactive,O=C(NCCCN1CCOCC1)c1cc(-c2ccco2)nc2ccccc12
